Reference: patent publication US7041700B2, “Substituted benzopyran derivatives against arrhythmia” (Nissan Chemical Industries, Ltd., priority 2001, dated 2006)

Columns and labels:
Atrium = test: Effects on the effective refractory period, atrium (anesthetized beagles, vagal nerve stimulation, S1-S2 extrastimulus); type: in vivo; conditions: 0.3 mg/kg intravenously, from 5 min after administration, basic cycle length 300 msec, bilateral vagal nerve stimulation, ERP after minus before drug
Protocol: (§1) Effects on the Effective Refractory Period
(§2) Beagles were anesthetized with pentobarbital sodium and thoracotomy was done along the median line under a respirator and the incision was made on the pericardium to expose the heart. ECG was recorded using bipolar electrodes attached to the surface of the right atrial free wall, right atrial auricle, and right ventricular free wall. The vagal nerves were stimulated using an electrostimulation device with Nichrome wires inserted into the vagal nerves in the neck bilaterally. The conditions for electrostimulation to the vagal nerves were set such that the RR intervals on ECG were prolonged by about 100 msec compared with those before the stimulation was started.
(§3) Atrial and ventricular effective refractory periods were determined by S1-S2 extrastimulus technique at basic cycle length of 300 msec during bilateral vagal nerve stimulation, using programmable electric stimulator. A train of 10 basic stimuli (S1) was followed by a premature extrastimulus (S2) at 2 times diastolic threshold.
(§4) For evaluation of drug effects, the atrial and ventricular effective refractory periods were determined before drug administration, then respective compound was administrated intravenously at the dose of 0.3 mg/kg, and the atrial and ventricular effective refactory periods were determined from 5 min after the administration.
(§5) The results were shown as the prolongation time on the atrial and ventricular effective refractory periods, i.e. [effective refractory period after drug administration]−[effective refactory period before drug administration] (msec).

Ventricle = test: Effects on the effective refractory period, ventricle (anesthetized beagles, vagal nerve stimulation, S1-S2 extrastimulus); type: in vivo; conditions: 0.3 mg/kg intravenously, from 5 min after administration, basic cycle length 300 msec, bilateral vagal nerve stimulation, ERP after minus before drug
Protocol: as §1, §2, §3, §4, §5

| Structure (SMILES) | prolongation time on the effective refractory period (msec) Atrium (Atrium) [ms] | prolongation time on the effective refractory period (msec) Ventricle (Ventricle) [ms] |
| --- | --- | --- |
| Cc1ccc2c(c1)[C@H](NCCc1ccc(Cl)cc1)[C@@H](O)C(C)(C)O2 [compound 2] | 23 | 4 |
| CC1(C)Oc2ccc(C(N)=O)cc2[C@H](NCCc2ccc(F)cc2)[C@H]1O [compound 4] | 23 | -10 |
| CC1(C)Oc2cc([N+](=O)[O-])ccc2[C@H](NCCc2ccccc2)[C@H]1O [compound 6] | 36 | 9 |
| CC1(C)Oc2ccc(C(N)=O)cc2[C@H](NCCc2ccccc2)[C@H]1O [compound 3] | 21 | 4 |
